From US4477458A, “Thiazolidine derivatives and their mucolytic compositions and methods” (Camillo Corvi S.p.A., priority 1981, dated 1984)
Counter-ions that a name gives are not always drawn.

Experiments:
[1] = system: mucus production of rabbit; assay: Activity on mucus production of rabbit (method of R. Scuri and Coll.); format: in vivo; conditions: for Mucoproduction at hours 0 - 4: mean ± E.S.
[2] = system: mucus of animals made bronchitic experimentally; assay: Fluidizing activity - viscosity of mucus of experimentally bronchitic animals (Contraves Rehomat microviscosimeter); format: in vivo, rabbit; conditions: 20 mg/kg i.v.
Description: (§1) The pharmacological activity was measured by studying the effect on the compound (CO/1177) on:
(§2) (b) viscosity of mucus of sound animals (rabbits) and/or of animals made bronchitic experimentally by using, for the viscosimeter measures, a Contraves Rehomat microviscosimeter at 15 automatic scanning speeds;

Acute toxicity, rabbit = conditions: in vivo, iv
gastric mucin of the pig = assay: "in vitro" viscosity of gastric mucin of the pig (Contraves Rehomat microviscosimeter); conditions: conc. 2 %; for Viscosity of gastric mucin: 0.1 ml; for Viscosity of gastric mucin, Var. %: vs Mucin + H2O
Description: The pharmacological activity was measured by studying the effect on the compound (CO/1177) on: (c) "in vitro" viscosity of gastric mucin of the pig by using, for the viscometer measures, a Contraves Rehomat microviscosimeter at 15 automatic scanning speeds.

Acute toxicity, rat = conditions: in vivo
Description: (§3) The acute and subacute toxicity tests were performed by using Swiss mice and Wistar rats of both sexes.

[3] = system: mucus of sound animals (rabbits); assay: Fluidizing activity - viscosity of mucus of sound animals (Contraves Rehomat microviscosimeter); format: in vivo, rabbit; conditions: 20 mg/kg i.v.
Description: as §1, §2

Acute toxicity, mouse = conditions: in vivo
Description: as §3

With `O=C(O)c1ccccc1C(=O)N1CCSC1` [CO/1177, 2-(1,3-thiazolidin-3-yl)-carbonyl-benzoic acid (Na salt)] the “Mucoproduction at hours 0 - 4” value ([1]; 2.5 mg/kg i.v.) was 52.760 ± 20.29 mg/h, the “Mucoproduction at hours 0 - 4” value ([1]; 5 mg/kg i.v.) was 37.650 ± 0.231 mg/h and the “Mucoproduction at hours 0 - 4” value ([1]; 10 mg/kg i.v.) was 49.250 ± 6.020 mg/h. For the same molecule, the “Mucoproduction at hours 0 - 4” value ([1]; 100 mg/kg os) was 34.320 ± 5.850 mg/h, the “Mucoproduction at hours 0 - 4” value ([1]; 200 mg/kg os) was 86.250 ± 10.80 mg/h and the “Mucoproduction at hours 0 - 4” value ([1]; 400 mg/kg os) was 30.730 ± 7.630 mg/h. For the same molecule, the change in vivo at 2.5 mg/kg ([1]; Oryctolagus cuniculus, iv, 2.5 mg/kg i.v., 0-4 h vs -4-0 h, read-out: Mucoproduction Var. %) was 32%, the change in vivo at 5 mg/kg ([1]; Oryctolagus cuniculus, iv, 5 mg/kg i.v., 0-4 h vs -4-0 h, read-out: Mucoproduction Var. %) was 34.6% and the change in vivo at 10 mg/kg ([1]; Oryctolagus cuniculus, iv, 10 mg/kg i.v., 0-4 h vs -4-0 h, read-out: Mucoproduction Var. %) was 71%. It also gave a change in vivo at 100 mg/kg ([1]; Oryctolagus cuniculus, po, 100 mg/kg os, 0-4 h vs -4-0 h, read-out: Mucoproduction Var. %) of 16.3%, a change in vivo at 200 mg/kg ([1]; Oryctolagus cuniculus, po, 200 mg/kg os, 0-4 h vs -4-0 h, read-out: Mucoproduction Var. %) of 51.2% and a change in vivo at 400 mg/kg ([1]; Oryctolagus cuniculus, po, 400 mg/kg os, 0-4 h vs -4-0 h, read-out: Mucoproduction Var. %) of 97.6%. The “Viscosity, time 0-24” value ([2]; speed 17.4 g/min) was 50.30 cps, the “Viscosity Var. %” value ([2]; speed 25 g/min) was -58.4% and the “Viscosity, time 0-24” value ([2]; speed 25 g/min) was 41.5 cps. The “Viscosity Var. %” value ([2]; speed 33.6 g/min) was -60%, the “Viscosity, time 0-24” value ([2]; speed 33.6 g/min) was 28.70 cps and the “Viscosity Var. %” value ([2]; speed 44.3 g/min) was -56.6%. For the same molecule, the “Viscosity, time 0-24” value ([2]; speed 44.3 g/min) was 22.4 cps, the “Viscosity Var. %” value ([2]; speed 56.1 g/min) was -51.9% and the “Viscosity, time 0-24” value ([2]; speed 56.1 g/min) was 14.50 cps. The “Viscosity Var. %” value ([2]; speed 77.9 g/min) was -60.9%, the “Viscosity, time 0-24” value ([2]; speed 77.9 g/min) was 10.7 cps and the “Viscosity Var. %” value ([2]; speed 113.2 g/min) was -63.8%. For the same molecule, the “Viscosity, time 0-24” value ([2]; speed 113.2 g/min) was 6.7 cps, the “Viscosity Var. %” value ([2]; speed 152 g/min) was -68.1% and the “Viscosity, time 0-24” value ([2]; speed 152 g/min) was 5.2 cps. For the same molecule, the “Viscosity Var. %” value ([2]; speed 200 g/min) was -66.7%, the “Viscosity, time 0-24” value ([2]; speed 200 g/min) was 4.0 cps and the “Viscosity Var. %” value ([2]; speed 266.8 g/min) was -71.8%. For the same molecule, the “Viscosity, time 0-24” value ([2]; speed 266.8 g/min) was 2.4 cps, the “Viscosity Var. %” value ([2]; speed 352 g/min) was -68.9% and the “Viscosity, time 0-24” value ([2]; speed 352 g/min) was 1.9 cps. The LD50 (Acute toxicity, rabbit) was ~3500 mg/kg, the “Viscosity of gastric mucin” value (gastric mucin of the pig; speed 17.4 g/min) was 24.87 cps and the “Viscosity of gastric mucin” value (gastric mucin of the pig; speed 25 g/min) was 22.39 cps. The “Viscosity of gastric mucin” value (gastric mucin of the pig; speed 33.6 g/min) was 24.05 cps, the “Viscosity of gastric mucin” value (gastric mucin of the pig; speed 44.3 g/min) was 22.92 cps and the “Viscosity of gastric mucin” value (gastric mucin of the pig; speed 56.1 g/min) was 23.14 cps. The “Viscosity of gastric mucin” value (gastric mucin of the pig; speed 77.9 g/min) was 20.91 cps, the “Viscosity of gastric mucin” value (gastric mucin of the pig; speed 113.2 g/min) was 20.88 cps and the “Viscosity of gastric mucin” value (gastric mucin of the pig; speed 152 g/min) was 18.81 cps. For the same molecule, the “Viscosity of gastric mucin” value (gastric mucin of the pig; speed 200 g/min) was 17.24 cps, the “Viscosity of gastric mucin” value (gastric mucin of the pig; speed 266.8 g/min) was 15.48 cps and the “Viscosity of gastric mucin” value (gastric mucin of the pig; speed 352 g/min) was 14.29 cps. The “Viscosity of gastric mucin, Var. %” value (gastric mucin of the pig; speed 17.4 g/min) was -10.9%, the “Viscosity of gastric mucin, Var. %” value (gastric mucin of the pig; speed 25 g/min) was -19.1% and the “Viscosity of gastric mucin, Var. %” value (gastric mucin of the pig; speed 33.6 g/min) was -10.1%. The “Viscosity of gastric mucin, Var. %” value (gastric mucin of the pig; speed 44.3 g/min) was -14.1%, the “Viscosity of gastric mucin, Var. %” value (gastric mucin of the pig; speed 56.1 g/min) was -11% and the “Viscosity of gastric mucin, Var. %” value (gastric mucin of the pig; speed 77.9 g/min) was -15.4%. The “Viscosity of gastric mucin, Var. %” value (gastric mucin of the pig; speed 113.2 g/min) was -8.1%, the “Viscosity of gastric mucin, Var. %” value (gastric mucin of the pig; speed 152 g/min) was -9.1% and the “Viscosity of gastric mucin, Var. %” value (gastric mucin of the pig; speed 200 g/min) was -8.1%. The “Viscosity of gastric mucin, Var. %” value (gastric mucin of the pig; speed 266.8 g/min) was -10%, the “Viscosity of gastric mucin, Var. %” value (gastric mucin of the pig; speed 352 g/min) was -7.1% and the LD50 (Acute toxicity, rat; iv) was > 5000 mg/kg. The LD50 (Acute toxicity, rat; po) was > 5000 mg/kg, the “Viscosity Var. %” value ([3]; speed 17.4 g/min) was -100% and the “Viscosity, time 0-24” value ([3]; speed 17.4 g/min) was 0 cps. For the same molecule, the “Viscosity Var. %” value ([3]; speed 25 g/min) was -81.7%, the “Viscosity, time 0-24” value ([3]; speed 25 g/min) was 0.88 cps and the “Viscosity Var. %” value ([3]; speed 33.6 g/min) was -78.6%. For the same molecule, the “Viscosity, time 0-24” value ([3]; speed 33.6 g/min) was 1.97 cps, the “Viscosity Var. %” value ([3]; speed 44.3 g/min) was -71.5% and the “Viscosity, time 0-24” value ([3]; speed 44.3 g/min) was 2.00 cps. For the same molecule, the “Viscosity Var. %” value ([3]; speed 56.1 g/min) was -67.6%, the “Viscosity, time 0-24” value ([3]; speed 56.1 g/min) was 2.43 cps and the “Viscosity Var. %” value ([3]; speed 77.9 g/min) was -53.6%. For the same molecule, the “Viscosity, time 0-24” value ([3]; speed 77.9 g/min) was 2.55 cps, the “Viscosity Var. %” value ([3]; speed 113.2 g/min) was -37.7% and the “Viscosity, time 0-24” value ([3]; speed 113.2 g/min) was 2.25 cps. The “Viscosity Var. %” value ([3]; speed 152 g/min) was -36.3%, the “Viscosity, time 0-24” value ([3]; speed 152 g/min) was 2.18 cps and the “Viscosity Var. %” value ([3]; speed 200 g/min) was -41.4%. For the same molecule, the “Viscosity, time 0-24” value ([3]; speed 200 g/min) was 2.04 cps, the “Viscosity Var. %” value ([3]; speed 266.8 g/min) was -39.2% and the “Viscosity, time 0-24” value ([3]; speed 266.8 g/min) was 1.94 cps. The “Viscosity Var. %” value ([3]; speed 352 g/min) was -37.4%, the “Viscosity, time 0-24” value ([3]; speed 352 g/min) was 1.91 cps and the LD50 (Acute toxicity, mouse; iv) was 3000 mg/kg. The LD50 (Acute toxicity, mouse; po) was > 5000 mg/kg.
